Data from PMC12386606, “Evaluation of the In Vitro Blood–Brain Barrier Transport of Ferula persica L. Bioactive Compounds” (International Journal of Molecular Sciences, 2025).
Where two headings read alike, the source gives them in different places.

Key:
[1] = Parallel artificial membrane permeability assay for the blood–brain barrier (PAMPA-BBB); settings: for AerExt log Pe: compound within AerExt donor solution; for AerExt log Pe / RootExt log Pe: 37 °C, 4 h, PBS pH 7.4, n.q. = not quantified in the acceptor plate; for RootExt log Pe: compound within RootExt donor solution; for AerExt Cross BBB Potential: compound within AerExt; for AerExt Cross BBB Potential / RootExt Cross BBB Potential: PAMPA-BBB; for RootExt Cross BBB Potential: compound within RootExt
Experimental: The permeability of bioactive compounds from AerExt and RootExt across the BBB was assessed using the PAMPA-BBB assay, following the methodology described by [11]. Firstly, the BBB solution was prepared by dissolving 8 mg of PBL and 4 mg of cholesterol in 600 μL of n-dodecane. The initial donor solution was prepared by mixing 1 mL of AerExt or RootExt (at 10 mg mL^−1 in EtOH) with 1 mL of buffer (PBS, pH = 7.4, 10 mM). The filter membrane of the donor plate was coated with 5 μL of BBB solution. The acceptor plate was filled with 350 μL of buffer, and the donor plate was carefully placed on top of the acceptor plate to form a “sandwich-like” assembly. Subsequently, 350 μL of the donor solution was added to the donor plate, which was then covered and incubated at 37 °C for 4 h in the dark. After the incubation time, 300 μL of the solution was collected from each plate, transferred into separate vials, and evaporated using a SpeedVac system at 40 °C under 13 mbar pressure. The dried acceptor and donor solutions were dissolved in 50 μL of pure EtOH before being subjected to HPLC-Q-TOF-MS/MS and GC-Q-TOF-MS analysis. Permeability (Pe) across the PAMPA-BBB of the bioactive compound was calculated according to Equation (1) [54], with modifications in concentration rates.Pe = −ln[1 − CA(t)/Cequilibrium]/(A × (1/VD + 1/VA) × t)(1)
Cequilibrium was calculated according to Equation (2):Cequilibrium = [CD(t) × VD + CA(t) × VA]/(VD + VA)(2)
The HPLC-MS and GC-MS chromatograms were processed using the Agilent Mass Hunter Qualitative software (version B.10.0) to verify the retention time and exact mass of the compounds previously reported by us [25] and to extract their peak area to calculate the BBB permeability.

[2] = oil/water partition coefficient, ref PubChem, cited from earlier work
HBMEC cells = experiment: Blood–brain barrier transport study in HBMEC Transwell monolayer; settings: for crossing of the HBMEC-BBB: AerExt 40 µg mL^−1 / RootExt 20 µg mL^−1, 2, 4, 24 h; for RootExt Te (%) ± SD 2 h / RootExt Te (%) ± SD 4 h / RootExt Te (%) ± SD 24 h: RootExt 20 µg mL^−1 apical; for RootExt Te (%) ± SD 2 h / RootExt Te (%) ± SD 4 h / RootExt Te (%) ± SD 24 h / AerExt Te (%) ± SD 2 h / AerExt Te (%) ± SD 4 h / AerExt Te (%) ± SD 24 h: n.q. = not quantified in the basolateral compartment; for AerExt Te (%) ± SD 2 h / AerExt Te (%) ± SD 4 h / AerExt Te (%) ± SD 24 h: AerExt 40 µg mL^−1 apical
Experimental: After the toxicity evaluation, the HBMEC cell line was also used as a simplified in vitro model of the BBB endothelium. Cells were seeded at a density of 1.6 × 10^5 cells/cm^2 in 12-well Transwell® plates (Corning Costar Corp., Corning, USA) with a pore diameter of 0.4 μm, pre-coated with type I rat tail collagen (100 μg mL^−1) [55]. The culture medium was renewed every 2 days until a monolayer cell structure was formed (see Supplementary Figure S2), and transport experiments were initiated after 10 days. In transport experiments, the medium in the apical (upper) compartment of the Transwell system was removed, and 0.5 mL of AerExt or RootExt at a concentration of 40 μg mL^−1 and 20 μg mL^−1, respectively, was added to these compartments (applied in duplicate). Also, a medium containing 0.4% (v/v) ethanol was used as control group. The basolateral (lower) compartments were filled with 1.5 mL of fresh culture medium. The cells were incubated under these conditions for 2, 4, and 24 h.
At the end of the incubation periods, media samples were collected from both chambers and lyophilized using a freeze-drying system from Martin Christ (Osterode am Harz, Germany). The samples were stored at −80 °C until analysis. The collected samples were subjected to chemical analyses to evaluate the ability of bioactive compounds contained in the extracts to pass through the cell monolayer.
The transport efficiency (Te) of bioactive substances was calculated based on Equation (3), described by [56]:Te (%) = CLower/CUpper × 100(3)
This calculation was performed to understand whether the compound crosses the cell layer and how efficiently it is transported.
For this purpose, 0.2 mL of cold water (H2O) was added to the samples, and the samples were vortexed for 10 s. Then, 0.8 mL of cold methanol was added and vortexed again for 10 s. Then, the mixture was centrifuged at 14,000 rpm for 5 min, and the supernatant was carefully transferred to a 1.5 mL Eppendorf tube and dried in a SpeedVac device at 40 °C and 13 bar pressure. Finally, the dried samples were resuspended in 25 μL of pure ethanol for their subsequent analysis.
For HPLC-Q-TOF MS/MS analysis, aliquots of 2 μL were injected into an HPLC model 1290 coupled to a Q-TOF series 6540 (Agilent Technologies, Waldbronn, Germany). For GC-Q-TOF MS analysis, aliquots of 1 μL were injected with a split ratio of 1:10 into a GC model 7890B coupled to a Q-TOF series 7200 (Agilent Technologies, Waldbronn, Germany). The HPLC-MS and GC-MS chromatograms were processed using the Agilent Mass Hunter Qualitative software (version B.10.0) to verify the retention time and exact mass of the compounds previously reported by us [25] and to extract their peak area to calculate the BBB permeability.

## Oc1ccc(O)c(O)c1 [1,2,4-benzenetriol]
[1]
  AerExt log Pe: n.q.
[2]; Table 1
  log p: 1.5
HBMEC cells
  crossing of the HBMEC-BBB: could not cross the HBMEC-BBB
  RootExt Te (%) ± SD 2 h: n.q.
  RootExt Te (%) ± SD 4 h: n.q.
  RootExt Te (%) ± SD 24 h: n.q.

## O=C(O)c1cccc(O)c1O [2,3-dihydroxybenzoic acid]
[1]
  AerExt log Pe: n.q.
[2]; Table 1
  log p: 1.2
[2]; Table 2
  log p: 1.5
HBMEC cells
  AerExt Te (%) ± SD 2 h: 17.5 ± 3.5%
  AerExt Te (%) ± SD 4 h: 9.6 ± 0.6%
  AerExt Te (%) ± SD 24 h: 14.0 ± 3.9%
  RootExt Te (%) ± SD 2 h: 21.4 ± 5.3%
  RootExt Te (%) ± SD 4 h: 23.9 ± 4.4%
  RootExt Te (%) ± SD 24 h: 214.1 ± 45.4%

## O=C(O)C=Cc1cc(O)ccc1O [2,5-dihydroxycinnamic acid]
[1]
  AerExt log Pe: −5.68
  RootExt log Pe: −5.22
[2]; Table 1
  log p: 1.2
HBMEC cells
  crossing of the HBMEC-BBB: could not cross the HBMEC-BBB
  RootExt Te (%) ± SD 2 h: n.q.
  RootExt Te (%) ± SD 4 h: n.q.
  RootExt Te (%) ± SD 24 h: n.q.

## O=C(O)/C=C/c1ccc(O)cc1 [4-coumaric acid]
[1]
  AerExt log Pe: n.q.
  RootExt log Pe: n.q.
[2]; Table 1
  log p: 1.5
HBMEC cells
  AerExt Te (%) ± SD 2 h: n.q.
  AerExt Te (%) ± SD 4 h: n.q.
  AerExt Te (%) ± SD 24 h: n.q.
  RootExt Te (%) ± SD 2 h: n.q.
  RootExt Te (%) ± SD 4 h: n.q.
  RootExt Te (%) ± SD 24 h: n.q.

## COc1ccc(C=O)c(O)c1 [4-methoxysalicylaldehyde]
[1]
  AerExt log Pe: n.q.
[2]; Table 1
  log p: 1.5
HBMEC cells
  crossing of the HBMEC-BBB: could not cross the HBMEC-BBB
  AerExt Te (%) ± SD 2 h: n.q.
  AerExt Te (%) ± SD 4 h: n.q.
  AerExt Te (%) ± SD 24 h: n.q.
  RootExt Te (%) ± SD 2 h: n.q.

## O=c1cc(-c2ccc(O)cc2)oc2cc(O[C@@H]3O[C@H](CO)[C@@H](O)[C@H](O)[C@H]3O)cc(O)c12 [Apigenin 7-glucoside]
[1]
  AerExt Cross BBB Potential: + (log Pe < −6.5)
  RootExt log Pe: n.q.
[2]; Table 1
  log p: −0.1
HBMEC cells
  crossing of the HBMEC-BBB: could not cross the HBMEC-BBB
  AerExt Te (%) ± SD 2 h: n.q.
  AerExt Te (%) ± SD 4 h: n.q.

## O=c1cc(-c2ccc(O)cc2)oc2cc(O)cc(O)c12 [Apigenin]
[1]; PAMPA, pH 7.4
  Papp at 4 h: 97.7 ×10⁻⁶ cm/s
[1]
  RootExt log Pe: n.q.
[2]; Table 1
  log p: 1.7
HBMEC cells
  AerExt Te (%) ± SD 2 h: 4.2 ± 0.9%
  AerExt Te (%) ± SD 4 h: 5.1 ± 0.3%
  AerExt Te (%) ± SD 24 h: 309.7 ± 93.0%

## C[C@H]1CC[C@@H](C(C)(C)O)CC2=C1CC[C@@H]2C [Guaiol]
[1]
  AerExt log Pe: n.q.
  RootExt log Pe: n.q.
[2]; Table 1
  log p: 3.1

## O=c1c(OC2OC(CO)C(O)C(O)C2O)c(-c2ccc(O)c(O)c2)oc2cc(O)cc(O)c12 (stereo not drawn) [Isoquercetrin]
[1]
  AerExt log Pe: n.q.
  AerExt Cross BBB Potential: –
  RootExt log Pe: n.q.
  RootExt Cross BBB Potential: –
[2]; Table 1
  log p: −0.2

## CC(=O)O[C@@H]1[C@@H](OC(C)=O)[C@@H](O)[C@H](Oc2c(-c3ccc(O)cc3)oc3cc(O)cc(O)c3c2=O)O[C@H]1C [Kaempferol 3-O-(3″,4″-di-O-acetyl-a-L-rhamnopyranoside)]
[1]
  AerExt log Pe: n.q.
[2]; Table 1
  log p: −0.9

## O=c1cc(-c2ccc(O)c(O)c2)oc2cc(O[C@@H]3O[C@H](CO)[C@@H](O)[C@H](O)[C@H]3O)cc(O)c12 [Luteolin 7-glucoside]
[1]
  AerExt Cross BBB Potential: + (log Pe < −6.5)
  RootExt log Pe: n.q.
[2]; Table 1
  log p: 0.5

## C=CCc1cc(OC)c2c(c1)OCO2 [Myristicin]
[1]
  RootExt log Pe: n.q.
[2]; Table 1
  log p: 2.9

## O=C(O)[C@]1(O)C[C@@H](O)[C@@H](O)[C@H](O)C1 [Quinic acid]
[1]
  AerExt Cross BBB Potential: + (log Pe < −6.5)
[2]; Table 1
  log p: −2.4

## CC1CCCC2(C)CCC(C(C)(C)O)C=C12 (stereo not drawn) [Rosifoliol]
[1]
  AerExt log Pe: n.q.
  RootExt log Pe: n.q.
[2]; Table 1
  log p: 3.9

## CC1=CCC[C@]2(C)CCC(=C(C)C)C[C@@H]12 [Selina-3,7(11)-diene]
[1]
  AerExt log Pe: n.q.
  RootExt log Pe: n.q.
[2]; Table 1
  log p: 4.4

## COc1cc([C@H]2OC[C@H]3[C@@H]2CO[C@@H]3c2cc(OC)c(O[C@@H]3O[C@H](CO)[C@@H](O)[C@H](O)[C@H]3O)c(OC)c2)cc(OC)c1O [Syringaresinol glucoside]
[1]
  AerExt log Pe: n.q.
  RootExt log Pe: n.q.
[2]; Table 1
  log p: −1.4

## C[C@@H]1CCC=C2CC[C@@H](C(C)(C)O)C[C@]21C [Valerianol]
[1]
  AerExt log Pe: −5.35
  RootExt log Pe: −5.59
  RootExt Cross BBB Potential: + (log Pe < −6.5)
[2]; Table 1
  log p: 3.5

## CC1=C2C[C@H](C(C)(C)O)CC[C@]2(C)CCC1 [epi-γ-eudesmol]
[1]
  AerExt Cross BBB Potential: + (log Pe < −6.5)
  RootExt Cross BBB Potential: + (log Pe < −6.5)
[2]; Table 1
  log p: 2.9

## COc1cc(/C=C/CO)cc(OC)c1O [trans-sinapyl alcohol]
[1]
  RootExt Cross BBB Potential: + (log Pe < −6.5)
[2]; Table 1
  log p: 1.3

## CC(C)=CCC[C@](C)(O)[C@@H]1CC=C(C)CC1 [α-bisabolol]
[1]
  AerExt Cross BBB Potential: + (log Pe < −6.5)
  RootExt Cross BBB Potential: + (log Pe < −6.5)
[2]; Table 1
  log p: 1.3

## C/C1=C\CC/C(C)=C/CC(C)(C)/C=C/C1 [α-humulene]
[1]
  AerExt log Pe: n.q.
  RootExt log Pe: n.q.
[2]; Table 1
  log p: 4.5

## C=CC1(C)CCC(=C(C)C)CC1C(=C)C (stereo not drawn) [γ-elemene]
[1]
  AerExt log Pe: n.q.
  RootExt log Pe: n.q.
[2]; Table 1
  log p: 5.4

## CC1=C2C[C@H](C(C)(C)O)CC[C@@]2(C)CCC1 [γ-eudesmol]
[1]
  AerExt Cross BBB Potential: + (log Pe < −6.5)
  RootExt Cross BBB Potential: + (log Pe < −6.5)
[2]; Table 1
  log p: 3.7

## Farnesyl acetate
[1]
  AerExt log Pe: −5.25
[2]; Table 1
  log p: 5.3

## α-epi-7-epi-5-eudesmol
[1]
  AerExt log Pe: n.q.
  RootExt log Pe: n.q.
[2]; Table 1
  log p: 3.4
